Assay results reported in patent US8802678B2, “Carbonylated (aza) cyclohexanes as dopamine D3 receptor ligands” (Bioprojet, priority 2006, dated 2014).
Where a name gives a salt, the structure may show the parent alone.

Compound | melting point [°C]
CC(=O)CN1CCC(CCN2CCN(c3ccc(F)c(C#N)c3Cl)CC2)CC1.Cl.Cl | 291
CC(=O)CN1CCC(CCN2CCN(c3ccccc3Cl)CC2)CC1.Cl.Cl | 265
CC(=O)CN1CCC(CCN2CCN(c3cccc(Cl)c3F)CC2)CC1.Cl.Cl | 270
CC(=O)CN1CCC(CCN2CCN(c3cc(C)cc(C)c3)CC2)CC1.Cl.Cl | 275
CC(=O)CN1CCC(CCN2CCN(c3cccc4ncccc34)CC2)CC1.Cl.Cl | 295
O=C(N[C@H]1CC[C@H](CCN2CC=C(c3ccc(F)cc3F)CC2)CC1)C1=CCCC1 | 166
CC(=O)C(=O)N1CCC(CCN2CCN(c3cccc4c3CCC4)CC2)CC1.Cl | 225
Cc1cc(C)cc(C2=CCN(CC[C@H]3CC[C@@H](NC(=O)CC#N)CC3)CC2)c1.Cl | 220
CC(=O)CN1CCC(CCN2CCN(c3ccc(F)c(C(F)(F)F)c3)CC2)CC1.Cl.Cl | 266
CC(=O)CN1CCC(CCN2CCN(c3cccc(Cl)c3Cl)CC2)CC1 (as salt: hydrochloride) [Example 737, 1-(4-{2-[4-(2,3-Dichlorophenyl)piperazin-1-yl]ethyl}piperidin-1-yl)propan-2-one, dihydrochloride] | 281
Cl.Cl.O=C(N[C@H]1CC[C@H](CCN2CCN(c3ccc(F)cc3F)CC2)CC1)[C@@H]1CCCN1 (stereo in doubt) | 260
CC(=O)CN1CCC(CCN2CCN(c3cccc(Cl)c3Cl)CC2)CC1 [Example 21, 1-(4-{2-[4-(2,3-Dichlorophenyl)piperazin-1-yl]ethyl}piperidin-1-yl)propan-2-one] | 87
CC(=O)CN1CCC(CCN2CCN(c3cccc(Cl)c3)CC2)CC1 [Example 29, 1-(4-{2-[4-(3-Chlorophenyl)-piperazin-1-yl]ethyl}piperidin-1-yl)propan-2-one] | 114
COCC(=O)N[C@H]1CC[C@H](CCN2CCN(c3cccc(C)c3C#N)CC2)CC1 [Example 49, N-(4-{2-[4-(2-Cyano-3-methylphenyl)piperazin-1-yl]ethyl}cyclohexyl)-2-methoxyacetamide] | 136
COCC(=O)N[C@H]1CC[C@H](CCN2CCC(c3cccc(C)c3C#N)CC2)CC1 [Example 55, N-(4-{2-[4-(2-Cyano-3-methylphenyl)piperidin-1-yl]ethyl}cyclohexyl)-2-methoxyacetamide] | 141
CCOCC(=O)N[C@H]1CC[C@H](CCN2CCN(c3ccccc3F)CC2)CC1 [Example 56, 2-Ethoxy-N-(4-{2-[4-(2-fluorophenyl)piperazin-1-yl]ethyl}cyclohexyl)acetamide] | 117 to 118
O=C(N[C@H]1CC[C@H](CCN2CCN(c3ccccc3F)CC2)CC1)C1CCCO1 (stereo partly drawn) [Example 57, Tetrahydrofuran-2-carboxylic acid (4-{2-[4-(2-fluorophenyl)piperazin-1-yl]ethyl}cyclohexyl)amide] | 119 to 120
COCC(=O)N[C@H]1CC[C@H](CCN2CCN(c3ccccc3C#N)CC2)CC1 [Example 58, N-(4-{2-[4-(2-Cyanophenyl)-piperazin-1-yl]ethyl}cyclohexyl)-2-methoxyacetamide] | 113
O=C(N[C@H]1CC[C@H](CCN2CCN(c3ccccc3)CC2)CC1)C1=CCCCC1 [Example 66, Cyclohex-1-enecarboxylic acid {4-[2-(4-phenylpiperazin-1-yl)ethyl]cyclohexyl}amide trans/cis 90/10] | 193
O=C(N[C@H]1CC[C@H](CCN2CCN(c3ccccc3F)CC2)CC1)C1=CCCCC1 [Example 67, Cyclohex-1-enecarboxylic acid (4-{2-[4-(2-fluorophenyl)-piperazin-1-yl]ethyl}cyclohexyl)-amide] | 209
O=C(N[C@H]1CC[C@H](CCN2CCN(c3ccccc3F)CC2)CC1)C1=CCCC1 [Example 68, Cyclopent-1-enecarboxylic acid (4-{2-[4-(2-fluorophenyl)-piperazin-1-yl]ethyl}-cyclohexyl)amide] | 210 to 211

The remaining lines, values ahead:

melting point [°C] | Compound
219 | COc1cccc(N2CCN(CC[C@H]3CC[C@H](NC(=O)CC#N)CC3)CC2)c1.Cl
278 | Cl.N#CCC(=O)N[C@H]1CC[C@H](CCN2CCN(c3ccccc3C(F)(F)F)CC2)CC1
143 | COCCNC(=O)C[C@H]1CC[C@H](CCN2CCN(c3cccc(C(F)(F)F)c3)CC2)CC1.Cl
160 | N#CCC(=O)CN1CCC(CCN2CCN(c3cccc(C(F)(F)F)c3)CC2)CC1 (as salt: hydrochloride)
196 | CNC(=O)CC1CCC(CCN2CCN(c3cccc(C(F)(F)F)c3)CC2)CC1 (mixture of isomers) [Example 295, N-Methyl-2-(4-{2-[4-(3-trifluoromethylphenyl)piperazin-1-yl]ethyl}cyclohexyl)acetamide cis/trans 50/50]
314 | Cl.Cl.N#Cc1cccc(N2CCN(CC[C@H]3CC[C@H](NC(=O)[C@@H]4CCCN4)CC3)CC2)c1 (stereo in doubt)
274 | Cl.Cl.O=C(N[C@H]1CC[C@H](CCN2CCN(c3cc(C(F)(F)F)ccc3F)CC2)CC1)[C@@H]1CCCN1 (stereo in doubt)
162 | CO[C@H](C)C(=O)N[C@H]1CC[C@H](CCN2CCN(c3ccccc3F)CC2)CC1 (stereo in doubt) [Example 75, N-(4-{2-[4-(2-Fluorophenyl)-piperazin-1-yl]ethyl}cyclohexyl)-2-methoxypropanamide]
159 | N#C[C@@H]1CC1C(=O)N[C@H]1CC[C@H](CCN2CCN(c3cccc(C(F)(F)F)c3)CC2)CC1 (stereo in doubt) [Example 324, 2-Cyano-cyclopropanecarboxylic acid (4-{2-[4-(3-trifluoromethylphenyl)piperazin-1-yl]ethyl}cyclohexyl) amide]
160 | CC(=O)c1cccc(N2CCN(CC[C@H]3CC[C@H](NC(=O)CC#N)CC3)CC2)c1 [Example 7, N-(4-{2-[4-(3-acetylphenyl)piperazin-1-yl]ethyl}cyclohexyl)-2-cyanoacetamide trans/cis 80/20]
134 | O=C(N[C@H]1CC[C@H](CCN2CCN(c3cccc(C(F)(F)F)c3)CC2)CC1)C(F)(F)F [Example 38, 2,2,2-Trifluoro-N-(4-{2-[4-(3-trifluoromethylphenyl)piperazin-1-yl]ethyl}cyclohexyl)acetamide]
135 | COC(=O)N[C@H]1CC[C@H](CCN2CCN(c3cccc(C(F)(F)F)c3)CC2)CC1 [Example 39, (4-{2-[4-(3-Trifluoromethyl-phenyl)piperazin-1-yl]ethyl}cyclo-hexyl)carbamic acid methyl ester]
135 | O=C(N[C@H]1CC[C@H](CCN2CCN(c3cccc(C(F)(F)F)c3)CC2)CC1)C1CCCO1 (stereo partly drawn) [Example 40, Tetrahydrofuran-2-carboxylic acid (4-{2-[4-(3-trifluoromethylphenyl)piperazin-1-yl]ethyl}cyclohexyl)amide]
123 | COCC(=O)N[C@H]1CC[C@H](CCN2CCN(c3cccc(C(F)(F)F)c3)CC2)CC1 [Example 41, 2-Methoxy-N-(4-{2-[4-(3-trifluoromethylphenyl)piperazin-1-yl]ethyl}cyclohexyl)acetamide]
128 | O=C(N[C@H]1CC[C@H](CCN2CCN(c3cccc(C(F)(F)F)c3)CC2)CC1)C(F)F [Example 44, 2,2-Difluoro-N-(4-{2-[4-(3-trifluoromethylphenyl)piperazin-1-yl]ethyl}cyclohexyl)acetamide]
175 | O=C(N[C@H]1CC[C@H](CCN2CCN(c3cccc(C(F)(F)F)c3)CC2)CC1)C1=CCCC1 [Example 45, Cyclopent-1-enecarboxylic acid (4-{2-[4-(3-trifluoromethyl-phenyl)piperazin-1-yl]ethyl}cyclohexyl)amide]
125 | COCCC(=O)N[C@H]1CC[C@H](CCN2CCN(c3cccc(C(F)(F)F)c3)CC2)CC1 [Example 47, 3-Methoxy-N-(4-{2-[4-(3-trifluoromethylphenyl)piperazin-1-yl]ethyl}cyclohexyl)propanamide]
154 | COCC(=O)N[C@H]1CC[C@H](CCN2CCN(c3ccc(F)cc3F)CC2)CC1 [Example 48, N-(4-{2-[4-(2,4-Difluorophenyl)-piperazin-1-yl]ethyl}cyclohexyl)-2-methoxyacetamide]
143 to 144 | COCC(=O)N[C@H]1CC[C@H](CCN2CCN(c3ccccc3F)CC2)CC1 [Example 50, N-(4-{2-[4-(2-Fluorophenyl)-piperazin-1-yl]ethyl}cyclohexyl)-2-methoxyacetamide]
183 | O=C(N[C@H]1CC[C@H](CCN2CCN(c3cccc(C(F)(F)F)c3)CC2)CC1)C1CC=CC1 [Example 52, Cyclopent-3-enecarboxylic acid (4-{2-[4-(3-trifluoromethylphenyl)-piperazin-1-yl]ethyl}cyclohexyl)-amide]
175 | O=C(N[C@H]1CC[C@H](CCN2CCN(c3cccc(C(F)(F)F)c3)CC2)CC1)C1=CCCCC1 [Example 53, Cyclohex-1-enecarboxylic acid (4-{2-[4-(3-trifluoromethylphenyl)-piperazin-1-yl]ethyl}cyclohexyl)-amide]
136 | COCC(=O)N[C@H]1CC[C@H](CCN2CCN(c3ccccc3)CC2)CC1 [Example 60, 2-Methoxy-N-{4-[2-(4-phenylpiperazin-1-yl)ethyl]-cyclohexyl}acetamide]
156 | O=C(CC(F)(F)F)N[C@H]1CC[C@H](CCN2CCN(c3cccc(C(F)(F)F)c3)CC2)CC1 [Example 63, 3,3,3-Trifluoro-N-(4-{2-[4-(3-trifluoromethylphenyl)piperazin-1-yl]ethyl}cyclohexyl)propanamide]
149 | COCCCC(=O)N[C@H]1CC[C@H](CCN2CCN(c3cccc(C(F)(F)F)c3)CC2)CC1 [Example 64, 4-Methoxy-N-(4-{2-[4-(3-trifluoromethylphenyl)piperazin-1-yl]ethyl}cyclohexyl)butanamide]
